Assay results: patent US5756491A, “Antiviral cobalt-organic compounds” (priority 1991, dated 1998)

What was measured:
HSV-1 McKrae Strain [1] = assay: Direct virucidal efficacy against HSV-1 on HFF monolayers; format: cell-based
HFF cells [2] = assay: Cell proliferation assay; format: cell-based, human; settings: rapidly growing cells
HSV-1 McKrae Strain [3] = assay: Intracellular antiviral activity against HSV-1 in HFF monolayers; format: cell-based; settings: Experiment 7 (Table 18), 24 h PI
Description: HSV-1 McKrae Strain was diluted to a final concentration of 10^5 PFU/ml in minimal essential medium (MEM). Hereinafter, this dilution is referred to as the HSV-1 Suspension for convenience.
With sufficient stirring, all the compounds completely dissolved.
HFF cell monolayers were inoculated with the HSV-Suspension prepared as above by absorption for thirty minutes at 37° C. After absorption of the virus, the inoculum was aspirated from the cell monolayers and the HSV-1 infected monolayers were rehydrated with medium containing the appropriate concentration of the solution of the compound by adding 500 microliters of each compound concentration to triplicate HSV-1 infected monolayers. All monolayers were incubated at 37° C. The developing HSV-1 cytopathology was monitored daily for two days by inverted light microscopy and titers were calculated by multiple […] analysis. For the intracellular anti-viral activity, "cell monolayer controls" were obtained using sham inoculated non-treated HFF cell monolayers along with the drug treated monolayers. "Positive controls" were obtained by using HSV-1 inoculated non-CTC compound treated HFF monolayers.

HFF cells [4] = assay: MTT assay for cell cytotoxicity; format: cell-based, human; settings: stationary cells
RE strain HSV-1 = assay: HSV-1 recovery from tear film, cornea and trigeminal ganglia of treated rabbits; format: in vivo, NZW rabbit
Summary of the method: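 NZW rabbits (1.5-2.0 kg) were inoculated bilaterally by intrastromal injection of 10^5 PFU HSV-1. Tear-film swabs on days 0, 3, 5 and 7 PI were cultured on HFF monolayers and scored for CPE. After sacrifice, corneal epithelial/stromal and trigeminal ganglion co-cultures were scored positive or negative for HSV CPE; negative ganglion cultures were blind-passaged twice.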

CC1=CC(C)=[N+]2CC[N+]3=C(C)C=C(C)[O][Co-3]23([NH3+])([NH3+])[O]1.[Cl-] [Compound 23, reference compound]
virucidal efficacy (HSV-1 titer) (HSV-1 McKrae Strain [1]; Experiment 1 (Table 2), 24 h PI, 0.001 mg/ml): 10^5 PFU/ml
virucidal efficacy (HSV-1 titer) (HSV-1 McKrae Strain [1]; Experiment 1 (Table 2), 24 h PI, 0.1 mg/ml): 10^1 PFU/ml
virucidal efficacy (HSV-1 titer) (HSV-1 McKrae Strain [1]; Experiment 1 (Table 2), 24 h PI, 1 mg/ml): 0 PFU/ml
virucidal efficacy (HSV-1 titer) (HSV-1 McKrae Strain [1]; Experiment 1 (Table 2), 24 h PI, 10 mg/ml): 0 PFU/ml
virucidal efficacy (HSV-1 titer) (HSV-1 McKrae Strain [1]; Experiment 1 (Table 2), 24 h PI, .01 mg/ml): 10^3 PFU/ml
virucidal efficacy (HSV-1 titer) (HSV-1 McKrae Strain [1]; Experiment 1 (Table 2), 48 h PI, 0.1 mg/ml): 10^5 PFU/ml
virucidal efficacy (HSV-1 titer) (HSV-1 McKrae Strain [1]; Experiment 1 (Table 2), 48 h PI, 1 mg/ml): 10^5 PFU/ml
virucidal efficacy (HSV-1 titer) (HSV-1 McKrae Strain [1]; Experiment 1 (Table 2), 48 h PI, 10 mg/ml): O/T
effective virucidal concentration IC90 (HSV-1 McKrae Strain [1]; Experiment 1 (Table 3), HSV-1): 0.1 mg/mL
virucidal efficacy (HSV-1 titer) (HSV-1 McKrae Strain [1]; Experiment 2 (Table 5), 24 h PI, 0.001 mg/ml): 10^3 PFU/ml
virucidal efficacy (HSV-1 titer) (HSV-1 McKrae Strain [1]; Experiment 2 (Table 5), 24 h PI, 0.01 mg/ml): 10^2 PFU/ml
virucidal efficacy (HSV-1 titer) (HSV-1 McKrae Strain [1]; Experiment 2 (Table 5), 24 h PI, 0.1 mg/ml): 10^1 PFU/ml
virucidal efficacy (HSV-1 titer) (HSV-1 McKrae Strain [1]; Experiment 2 (Table 5), 24 h PI, 1 mg/ml): 0 PFU/ml
virucidal efficacy (HSV-1 titer) (HSV-1 McKrae Strain [1]; Experiment 2 (Table 5), 24 h PI, 10 mg/ml): 0 PFU/ml
virucidal efficacy (HSV-1 titer) (HSV-1 McKrae Strain [1]; Experiment 2 (Table 5), 48 h PI, 0.1 mg/ml): 10^5 PFU/ml
virucidal efficacy (HSV-1 titer) (HSV-1 McKrae Strain [1]; Experiment 2 (Table 5), 48 h PI, 1 mg/ml): 0 PFU/ml
virucidal efficacy (HSV-1 titer) (HSV-1 McKrae Strain [1]; Experiment 2 (Table 5), 48 h PI, 10 mg/ml): O/T
virucidal efficacy (HSV-1 titer) (HSV-1 McKrae Strain [1]; Experiment 3 (Table 8), 24 h PI, 0.001 mg/ml): 10^5 PFU/ml
virucidal efficacy (HSV-1 titer) (HSV-1 McKrae Strain [1]; Experiment 3 (Table 8), 24 h PI, 0.01 mg/ml): 10^3 PFU/ml
virucidal efficacy (HSV-1 titer) (HSV-1 McKrae Strain [1]; Experiment 3 (Table 8), 24 h PI, 0.1 mg/ml): 10^1 PFU/ml
virucidal efficacy (HSV-1 titer) (HSV-1 McKrae Strain [1]; Experiment 3 (Table 8), 24 h PI, 1 mg/ml): 0 PFU/ml
virucidal efficacy (HSV-1 titer) (HSV-1 McKrae Strain [1]; Experiment 3 (Table 8), 48 h PI, 0.1 mg/ml): 10^5 PFU/ml
virucidal efficacy (HSV-1 titer) (HSV-1 McKrae Strain [1]; Experiment 3 (Table 8), 48 h PI, 1 mg/ml): 10^5 PFU/ml
virucidal efficacy (HSV-1 titer) (HSV-1 McKrae Strain [1]; Experiment 6 (Table 16), 24 h PI, 0.1 mg/ml): 10^0-1 PFU/ml
virucidal efficacy (HSV-1 titer) (HSV-1 McKrae Strain [1]; Experiment 6 (Table 16), 24 h PI, 0.5 mg/ml): 0 PFU/ml
virucidal efficacy (HSV-1 titer) (HSV-1 McKrae Strain [1]; Experiment 6 (Table 16), 24 h PI, 1 mg/ml): 0 PFU/ml
virucidal efficacy (HSV-1 titer) (HSV-1 McKrae Strain [1]; Experiment 6 (Table 16), 24 h PI, 2 mg/ml): 0 PFU/ml
virucidal efficacy (HSV-1 titer) (HSV-1 McKrae Strain [1]; Experiment 6 (Table 16), 24 h PI, 5 mg/ml): 0 PFU/ml
toxicity IC50, cell proliferation (HFF cells [2]): 6.2 MCG/ML
antiviral efficacy (HSV-1 titer) (HSV-1 McKrae Strain [3]; 0.01 mg/ml): 10^2 PFU/ml
antiviral efficacy (HSV-1 titer) (HSV-1 McKrae Strain [3]; 0.5 mg/ml): 0-10^1 PFU/ml
antiviral efficacy (HSV-1 titer) (HSV-1 McKrae Strain [3]; 1 mg/ml): 0 PFU/ml
antiviral efficacy (HSV-1 titer) (HSV-1 McKrae Strain [3]; 2 mg/ml): 0 PFU/ml
antiviral efficacy (HSV-1 titer) (HSV-1 McKrae Strain [3]; 5 mg/ml): 0 PFU/ml
toxicity IC50, MTT toxicity (HFF cells [4]): > 61 MCG/ML
HSV-1 recovery from corneal epithelial cultures vs other therapy groups (RE strain HSV-1; Example 3): significantly reduced
HSV-1 recovery, corneal epithelium (C.E.) (RE strain HSV-1; Example 3 (Table 22)): 20%
HSV-1 recovery, corneal stroma (C.S.) (RE strain HSV-1; Example 3 (Table 22)): 50%
HSV-1 recovery, trigeminal ganglia (T.G.) (RE strain HSV-1; Example 3 (Table 22)): 50%
HSV-1 recovery, tear film (positive samples of total) (RE strain HSV-1; Example 3 (Table 22), day 3 PI): 100%
HSV-1 recovery, tear film (positive samples of total) (RE strain HSV-1; Example 3 (Table 22), day 5 PI): 100%
HSV-1 recovery, tear film (positive samples of total) (RE strain HSV-1; Example 3 (Table 22), day 7 PI): 80%
HSV-1 recovery, tear film (positive samples of total) (RE strain HSV-1; Example 3 (Table 22), day 9 PI): 0%
recovery of HSV-1 in tear film (RE strain HSV-1; Example 4): reduced the recovery of HSV-1 in tear film
HSV-1 recovery, corneal stroma (RE strain HSV-1; Example 5 (Table 23)): 80%
HSV-1 recovery (positive cultures per total) (RE strain HSV-1; Example 5 (Table 23), column 1): 0%
HSV-1 recovery (positive cultures per total) (RE strain HSV-1; Example 5 (Table 23), column 3): 100%
HSV-1 recovery (positive cultures per total) (RE strain HSV-1; Example 5 (Table 23), column 5): 90%
HSV-1 recovery (positive cultures per total) (RE strain HSV-1; Example 5 (Table 23), column 7): 80%
